The values that follow come from publication PMC8432116, “Drug–Drug Interaction between Tacrolimus and Vonoprazan in Kidney Transplant Recipients” (Journal of Clinical Medicine, 2021).

The nature of series [1]: Estimated maximum concentration in the intestinal lumen according to DDI guidelines. Set-up: species or system human. An excerpt: P-glycoprotein, a drug efflux transporter expressed in the intestinal lumen, can be considered in addition to CYP as the mechanism of the DDIs between vonoprazan and tacrolimus.
The next series deals with P-glycoprotein. Set-up: method as in PMID 15467223. The settings on record: read-out: IC50 for inhibition of P-glycoprotein transporter activity; cited from earlier work.
The nature of series [2]: Laboratory data of liver and kidney function before and after the switch. The series is classed as in vivo, human. The settings on record: during the named PPI phase; 18 recipients on tacrolimus. How it is done:
(§1) Eighteen kidney transplant recipients were recruited for this study from February 2015 to July 2020 (Table 1). The recipients were treated with tacrolimus-based immunosuppression, tacrolimus QD (Graceptor®; Astellas Pharma, Tokyo, Japan) in combination with mycophenolate mofetil and corticosteroids. The initial dose of tacrolimus QD was 0.15–0.20 mg/kg/day for 3–7 days before transplantation. The patients’ PPIs were switched from oral rabeprazole to vonoprazan (TAK-438; Takecab®; Takeda Pharmaceutical Company Limited., Tokyo, Japan) for intensive gastric acid suppression on postoperative days (POD) 3–43. The median (range) dose of oral rabeprazole and vonoprazan were 0.16 (0.11–0.22) and 0.31 (0.11–0.44) mg/kg/day, respectively (Table 1). Blood concentrations of tacrolimus were […] when the rabeprazole was switched to vonoprazan. Liver function for the patients was normal. […] Major symptoms due to gastric ulcer, retching, and heartburn disappeared by switching from rabeprazole to vonoprazan.

The nature of series [3]: Whole blood trough concentration and C/D ratio of tacrolimus before and after switching PPI from rabeprazole to vonoprazan. The format is in vivo, human. The settings on record: for Trough tacrolimus concentration, typical case / C/D ratio of tacrolimus, typical case: single case; for Percentage increase of the C/D ratio: vonoprazan coadministration; for Tacrolimus trough concentration, median (range): whole blood, 18 kidney transplant recipients. How it is done:
as §1
Whole blood concentrations of tacrolimus were measured using the ARCHITECT chemiluminescent immunoassay system (Abbot, Abbot Park, IL, USA). Blood samples were collected in the morning just before the morning administration of tacrolimus to determine the trough levels. Tacrolimus dose was adjusted to achieve predefined target concentration ranges of 5–10 ng/mL (POD −3–14), 7–8 ng/mL (POD 14–28), and 5–8 ng/mL (after POD 28). The change in concentration/dose (C/D; in nanogram per milliliter/milligram per kilogram) ratio of tacrolimus before and after initiating oral vonoprazan was calculated to assess the DDIs.
Genomic DNA was extracted from peripheral whole blood samples using the QIAamp DNA blood kit system (Qiagen, Hilden, Germany) according to the manufacturer’s instruction. Subjects were genotyped for CYP2C19 rs4244285 (CYP2C19*2), CYP2C19 rs4986893 (CYP2C19*3), and CYP3A5 rs776746 (CYP3A5*3) polymorphisms. These variants were identified by real-time polymerase chain reaction (PCR) using a TaqMan® Drug Metabolism Genotyping Assays (Thermo Fisher Scientific, Waltham, MA, USA) with a QuantStudio 3 real-time PCR system (Thermo Fisher Scientific). Recipients were categorized into two groups based on the CYP2C19 genotypes (extensive metabolizer (EM; CYP2C19*1/*1)), intermediate metabolizer (IM; CYP2C19*1/*2 and *1/*3), and poor metabolizer (PM; *2/*2, *2/*3, and *3/*3)] and the CYP3A5 genotypes (CYP3A5*1 carrier (CYP3A5*1/*1 and CYP3A5*1/*3)) and the noncarrier (CYP3A5*3/*3)].
The Wilcoxon signed-rank test was used to compare the difference in the concentration and C/D ratio of tacrolimus before and after switching to vonoprazan. Differences in the concentration and C/D ratio of tacrolimus among the genotypes were compared by the Mann–Whitney U test. The statistical analyses were carried out using SPSS 26.0 (IBM, Tokyo, Japan). Results with a p value of <0.05 were considered statistically significant.

Details of series [4]: method as in PMID 19177031. The settings on record: cited from earlier work.
For series [5] the following is noted: cited from earlier work; for Increase in C/D ratio of tacrolimus after the conversion: outpatient phase of post-transplantation.
Series [6] can be described thus: Clinical observation of adverse events and gastric symptoms after switching. The series is classed as in vivo, human. The procedure: as §1
Where [7] appears, read: CYP2C19 EM, n=5, rabeprazole to vonoprazan.
Where [8] appears, read: CYP2C19 IM/PM, n=13, Rabeprazole.
Where [9] appears, read: CYP2C19 IM/PM, n=13, Vonoprazan.
The mark [10] stands for this setting: CYP2C19 IM/PM, n=13, rabeprazole to vonoprazan.
Where [11] appears, read: CYP3A5 *1 carrier, n=5, Rabeprazole.
The mark [12] stands for this setting: CYP3A5 *1 carrier, n=5, Vonoprazan.
Setting [13] is: CYP3A5 *1 carrier, n=5, rabeprazole to vonoprazan.
Setting [14] is: CYP3A5 *1 noncarrier, n=13, Rabeprazole.
Where [15] appears, read: CYP3A5 *1 noncarrier, n=13, Vonoprazan.
[16] abbreviates: CYP3A5 *1 noncarrier, n=13, rabeprazole to vonoprazan.
Where [17] appears, read: rabeprazole to vonoprazan, 18 recipients.
The mark [18] stands for this setting: vonoprazan coadministration vs rabeprazole.

The structures appear in SMILES notation. pIC50: −log10 of the molar value. “And” between values parts separate entries of the source, which are not always exact repeats. Identical values can stand only once. Like-named read-outs stand apart in the source and are kept apart here. Where only a bound is given, the exact number is not on record here.

Usually pIC50 stands for −log10 of the IC50, conventionally taken in molar units. For `COCCCOc1ccnc(C[S+]([O-])c2nc3ccccc3[nH]2)c1C` (stereo not shown) [Rabeprazole], the “Estimated maximum concentration in the intestinal lumen” value in series [1] (administered at 10 mg) is given as 111 µM. Also, the negative logarithm of the IC50 (pIC50) in the series on P-glycoprotein was at most 4.00. Besides, in series [2], the Alanine aminotransferase, median (range) was 28 IU/L; the Aspartate aminotransferase, median (range) worked out at 16 IU/L; the “Blood urine nitrogen, median (range)” value is listed as 24.2 (9.8–78.7) mg/dL; the “Serum creatinine, median (range)” value was 1.55 (0.62–4.31) mg/dL.
`C=CC[C@@H]1/C=C(\C)C[C@H](C)C[C@H](OC)[C@H]2O[C@@](O)(C(=O)C(=O)N3CCCC[C@H]3C(=O)O[C@H](/C(C)=C/[C@@H]3CC[C@@H](O)[C@H](OC)C3)[C@H](C)[C@@H](O)CC1=O)[C@H](C)C[C@@H]2OC` [Tacrolimus]: the “Tacrolims C/D Ratio, median” value is 25.6 (ng/mL)/(mg/kg/day) in series [3] (CYP2C19 EM, n=5, Rabeprazole); 40.7 (ng/mL)/(mg/kg/day) in series [3] (CYP2C19 EM, n=5, Vonoprazan); 39.5 (ng/mL)/(mg/kg/day) in series [3] (setting [8]); 50.4 (ng/mL)/(mg/kg/day) in series [3] (setting [9]); 36.9 (ng/mL)/(mg/kg/day) in series [3] (setting [11]); 45.1 (ng/mL)/(mg/kg/day) in series [3] (setting [12]). In addition, the figures for the “Tacrolims C/D Ratio, median” value in series [3] (setting [14]) and in series [3] (setting [15]) were 44.9 (ng/mL)/(mg/kg/day) and 50.4 (ng/mL)/(mg/kg/day), respectively. In addition, the “Tacrolimus Concentration, median” value in series [3] (CYP2C19 EM, n=5, Rabeprazole) came out at 4.0 ng/mL; in series [3] (CYP2C19 EM, n=5, Vonoprazan), 8.5 ng/mL; in series [3] (setting [8]) it was 5.3 ng/mL; in series [3] (setting [9]), 7.7 ng/mL; in series [3] (setting [11]), 5.3 ng/mL; in series [3] (setting [12]) it was 8.5 ng/mL. In addition, the “Tacrolimus Concentration, median” value turned out to be 5.0 ng/mL in series [3] (setting [14]) and 7.5 ng/mL in series [3] (setting [15]). The “ΔC/D Ratio, median” value in series [3] (setting [7]) amounted to 15.1; in series [3] (setting [10]), 6.3; in series [3] (setting [13]), 14.6; in series [3] (setting [16]), 18.3. Also, the ΔConcentration, median stood at 3.6 ng/mL in series [3] (setting [7]), 3 ng/mL in series [3] (setting [10]), 2.8 ng/mL in series [3] (setting [13]) and 3.3 ng/mL in series [3] (setting [16]). For the same molecule, the “Percent change in tacrolimus C/D ratio after the switching, median (range)” value in series [3] (setting [17]) was 41.8% and 41.8 (2.7–129.8) %. In series [3] (setting [17]), the “Percent change in tacrolimus concentration after the switching, median (range)” value is 65.8% and 65.8 (0.0–192.5) %. Moreover, the “Trough tacrolimus concentration, typical case” value in series [3] (after switching to vonoprazan) was in the range of 9.4 to 10.7 ng/mL; in series [3] (rabeprazole phase) it was 3.8 to 4.7 ng/mL. The “C/D ratio of tacrolimus, typical case” value in series [3] (rabeprazole phase) is recorded as 26.2–29.0; in series [3] (vonoprazan phase, 10 mg, before dose escalation) it was 33.6–37.1; in series [3] (vonoprazan phase, after escalation to 20 mg), 41.3–48.8. For the same molecule, the “Elevation in C/D ratio of tacrolimus” value in series [3] (setting [18]) was 1.4 fold. For the same molecule, the “Elevation in blood concentration of tacrolimus” value in series [3] (setting [18]) turned out to be 1.7 fold. Besides, the results for the “Percentage increase of the C/D ratio” value in series [3] (CYP3A5*1 carriers) and in series [3] (CYP3A5*1 noncarriers) were 44.4% and 39.1%, respectively. For the same molecule, the “Tacrolimus trough concentration, median (range)” value in series [3] (with rabeprazole, before switching) is given as 5.2 (3.6–7.4) ng/mL; in series [3] (with vonoprazan, after switching), 8.1 (6.1–11.7) ng/mL. In addition, the “Tacrolimus C/D ratio, median (range)” value in series [3] (with rabeprazole, before switching, 18 recipients) was 38.1 (16.5–138.1) (ng/mL)/(mg/kg); in series [3] (with vonoprazan, 7 days after initiating, 18 recipients), 48.9 (26.6–207.2) (ng/mL)/(mg/kg). In addition, in series [4], the “Therapeutic range of blood concentration” value is 5 to 15 ng/mL. In addition, the “Increase in C/D ratio of tacrolimus after the conversion” value in series [5] (ref 27) is 10.6%; in series [5] (ref 30) it was “no increase”. Moreover, in series [5] (outpatients 2–7 years post-transplantation), the “Increase of the C/D ratio of tacrolimus after switching rabeprazole to vonoprazan” value is recorded as 1.1 fold. For the same molecule, the “Increase of tacrolimus trough levels after switching to vonoprazan” value in series [5] (outpatients, even in the CYP2C19 IM/PM in the CYP3A5*1 noncarriers) is on record as “no significant increase”. For the same molecule, the Adverse events entry in series [6] (all patients, after switching to vonoprazan, tacrolimus kept in therapeutic range) was “No adverse event was observed”.
In the case of `CNCc1cc(-c2ccccc2F)n(S(=O)(=O)c2cccnc2)c1.O=C(O)/C=C/C(=O)O` [Vonoprazan, 1-[5-(2-Fluorophenyl)-1-(pyridin-3-ylsulfonyl)-1H-pyrrol-3-yl]-N-methylmethanamine monofumarate], in series [1] (administered at 20 mg), the “Estimated maximum concentration in the intestinal lumen” value is 231 µM. The “Major symptoms due to gastric ulcer, retching and heartburn” value in series [6] (switching from rabeprazole to vonoprazan) is reported as “disappeared”. Besides, in the series on P-glycoprotein, the pIC50 is 4.30. Besides, in series [2], the Alanine aminotransferase, median (range) turned out to be 22 IU/L; the Aspartate aminotransferase, median (range) was 15 IU/L; the “Blood urine nitrogen, median (range)” value is on record as 17.4 (7.5–45.4) mg/dL; the “Serum creatinine, median (range)” value is 1.21 (0.58–2.84) mg/dL.
